By IC50 is commonly meant the concentration that inhibits the measured activity by half.

The results in this text go back to BindingDB's records for doi:10.1016/S0960-894X(01)00722-3 (Janssen-Cilag, 2001).

The target of assay [1] is T1, 5-hydroxytryptamine receptor 2A (Homo sapiens, UniProt P28223). The experiment in a line: ChEBML_2507. An excerpt:
(§1) Binding affinity for human cloned 5-HT2A receptor expressed in L929 cells using [125I]R91150 as radioligand

The target of assay [2] is T2, 5-hydroxytryptamine receptor 2C (Homo sapiens, UniProt P28335).
T2 sequence (P28335 whole entry): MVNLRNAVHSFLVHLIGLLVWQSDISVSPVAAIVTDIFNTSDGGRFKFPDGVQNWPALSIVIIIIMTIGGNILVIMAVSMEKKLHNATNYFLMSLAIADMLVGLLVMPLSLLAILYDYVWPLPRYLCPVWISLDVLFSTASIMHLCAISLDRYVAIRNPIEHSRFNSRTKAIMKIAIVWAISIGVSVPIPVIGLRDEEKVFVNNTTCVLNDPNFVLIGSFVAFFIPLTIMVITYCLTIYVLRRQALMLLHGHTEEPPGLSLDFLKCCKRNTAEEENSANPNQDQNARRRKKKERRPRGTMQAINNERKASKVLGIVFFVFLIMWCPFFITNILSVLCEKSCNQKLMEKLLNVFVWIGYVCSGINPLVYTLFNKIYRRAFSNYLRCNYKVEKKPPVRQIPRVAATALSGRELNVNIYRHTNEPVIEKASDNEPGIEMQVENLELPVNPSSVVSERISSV
The assay can be described thus: ChEBML_2740. An excerpt:
Binding affinity at human cloned 5-hydroxytryptamine 2C receptor expressed in CHO cells by [3H]mesulergine displacement.

The target in another assay is Histamine H1 receptor (Homo sapiens, UniProt P35367). The experiment in a line: ChEBML_84541. An excerpt:
Binding affinity at human cloned Histamine H1 receptor expressed in CHO cells by [3H]pyrilamine displacement.

The target in assay [3] is T3, Alpha-2A adrenergic receptor (Homo sapiens, UniProt P08913).
T3 sequence (P08913 whole entry): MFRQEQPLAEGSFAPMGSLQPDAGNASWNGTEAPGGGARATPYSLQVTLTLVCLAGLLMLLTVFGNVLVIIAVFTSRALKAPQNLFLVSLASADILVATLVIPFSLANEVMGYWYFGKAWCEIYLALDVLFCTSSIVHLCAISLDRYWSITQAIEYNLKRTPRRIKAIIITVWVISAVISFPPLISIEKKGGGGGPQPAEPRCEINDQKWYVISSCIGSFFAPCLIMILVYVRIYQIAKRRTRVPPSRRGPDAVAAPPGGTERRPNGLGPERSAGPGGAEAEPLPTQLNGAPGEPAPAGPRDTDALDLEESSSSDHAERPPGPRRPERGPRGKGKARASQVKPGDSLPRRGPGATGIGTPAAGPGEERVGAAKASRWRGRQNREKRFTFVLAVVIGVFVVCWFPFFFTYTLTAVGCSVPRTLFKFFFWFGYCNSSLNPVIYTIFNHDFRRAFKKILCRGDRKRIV
The experiment in a line: ChEBML_33198. An excerpt:
Binding affinity for human cloned Alpha-2A adrenergic receptor

For assay [4], the target named is 5-hydroxytryptamine receptor 1D (Homo sapiens, UniProt P28221). The experiment in a line: ChEBML_1745. An excerpt: Binding affinity for human cloned 5-hydroxytryptamine 1D receptor
5-hydroxytryptamine receptor 1D, sequence (P28221 whole entry): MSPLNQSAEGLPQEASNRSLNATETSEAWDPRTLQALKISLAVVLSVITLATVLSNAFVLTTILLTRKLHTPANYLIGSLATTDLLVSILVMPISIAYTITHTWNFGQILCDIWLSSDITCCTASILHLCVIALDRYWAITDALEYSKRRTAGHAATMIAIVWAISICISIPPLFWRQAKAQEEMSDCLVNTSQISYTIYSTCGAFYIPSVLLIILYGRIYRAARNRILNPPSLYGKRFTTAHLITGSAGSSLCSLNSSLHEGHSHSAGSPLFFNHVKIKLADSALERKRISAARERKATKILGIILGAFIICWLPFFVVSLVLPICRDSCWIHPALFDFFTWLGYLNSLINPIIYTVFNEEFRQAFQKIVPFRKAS
Another assay deals with T4, D(4) dopamine receptor (Homo sapiens, UniProt P21917).
T4 sequence (P21917 whole entry): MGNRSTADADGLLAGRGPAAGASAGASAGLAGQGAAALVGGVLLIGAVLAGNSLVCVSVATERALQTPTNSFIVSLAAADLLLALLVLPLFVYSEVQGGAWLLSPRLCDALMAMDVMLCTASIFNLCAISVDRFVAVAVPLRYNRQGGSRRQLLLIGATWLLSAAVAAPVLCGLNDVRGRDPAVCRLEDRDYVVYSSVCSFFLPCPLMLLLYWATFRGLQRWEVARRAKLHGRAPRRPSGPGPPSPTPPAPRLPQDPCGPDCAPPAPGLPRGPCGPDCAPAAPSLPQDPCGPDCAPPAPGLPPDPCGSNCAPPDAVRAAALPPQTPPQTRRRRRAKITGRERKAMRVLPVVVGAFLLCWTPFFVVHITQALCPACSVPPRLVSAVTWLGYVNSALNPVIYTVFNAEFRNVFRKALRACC
The experiment in a line: ChEBML_60841. An excerpt:
Binding affinity for human cloned Dopamine receptor D4

For the next assay, the target named is D(3) dopamine receptor (Homo sapiens, UniProt P35462). The experiment in a line: ChEBML_62451. An excerpt: Binding affinity for human cloned Dopamine receptor D3
D(3) dopamine receptor, sequence (P35462 as listed by the source): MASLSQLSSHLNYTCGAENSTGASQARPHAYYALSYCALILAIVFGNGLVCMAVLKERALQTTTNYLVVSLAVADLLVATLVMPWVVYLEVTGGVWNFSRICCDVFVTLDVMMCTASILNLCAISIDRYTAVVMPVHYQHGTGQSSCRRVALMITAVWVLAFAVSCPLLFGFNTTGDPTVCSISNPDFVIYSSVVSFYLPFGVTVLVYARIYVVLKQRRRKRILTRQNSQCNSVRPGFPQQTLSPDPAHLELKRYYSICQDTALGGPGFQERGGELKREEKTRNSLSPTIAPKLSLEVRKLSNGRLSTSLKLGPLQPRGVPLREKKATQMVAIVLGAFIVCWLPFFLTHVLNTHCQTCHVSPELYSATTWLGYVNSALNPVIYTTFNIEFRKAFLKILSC
Assay [5] deals with T5, Alpha-1A adrenergic receptor (Homo sapiens, UniProt P35348).
T5 sequence (P35348 whole entry): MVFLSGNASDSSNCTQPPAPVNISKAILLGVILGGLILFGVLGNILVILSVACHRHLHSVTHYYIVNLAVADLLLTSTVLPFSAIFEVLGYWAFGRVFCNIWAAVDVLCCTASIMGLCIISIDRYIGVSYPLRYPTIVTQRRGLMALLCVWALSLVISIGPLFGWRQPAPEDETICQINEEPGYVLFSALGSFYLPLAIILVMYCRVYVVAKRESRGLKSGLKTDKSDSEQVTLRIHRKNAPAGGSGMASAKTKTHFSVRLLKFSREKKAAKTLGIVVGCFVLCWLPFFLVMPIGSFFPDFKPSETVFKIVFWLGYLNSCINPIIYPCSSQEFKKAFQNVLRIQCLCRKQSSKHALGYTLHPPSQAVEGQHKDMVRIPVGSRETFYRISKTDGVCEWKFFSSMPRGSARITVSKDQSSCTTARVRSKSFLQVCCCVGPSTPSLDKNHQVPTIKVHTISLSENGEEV
The assay can be described thus: ChEBML_33869. An excerpt:
Binding affinity for human cloned Alpha-1A adrenergic receptor

The target in assay [6] is T6, Alpha-2C adrenergic receptor (Homo sapiens, UniProt P18825).
T6 sequence (P18825 whole entry): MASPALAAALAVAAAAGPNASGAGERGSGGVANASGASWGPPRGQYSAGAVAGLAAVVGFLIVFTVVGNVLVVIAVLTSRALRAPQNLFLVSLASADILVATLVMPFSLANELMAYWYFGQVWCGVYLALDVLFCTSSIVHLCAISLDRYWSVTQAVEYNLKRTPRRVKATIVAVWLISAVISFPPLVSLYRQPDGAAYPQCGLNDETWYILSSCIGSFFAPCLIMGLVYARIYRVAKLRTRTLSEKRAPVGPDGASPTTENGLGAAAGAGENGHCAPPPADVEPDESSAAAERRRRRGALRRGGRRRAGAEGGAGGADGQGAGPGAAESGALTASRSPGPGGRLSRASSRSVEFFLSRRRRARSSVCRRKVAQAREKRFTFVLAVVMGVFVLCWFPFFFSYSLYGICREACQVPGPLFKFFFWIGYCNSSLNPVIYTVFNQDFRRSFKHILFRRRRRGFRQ
The experiment in a line: ChEBML_33661. An excerpt: Binding affinity for human cloned Alpha-2C adrenergic receptor

Assay [7] addresses D(2) dopamine receptor (Rattus norvegicus, UniProt P61169). The experiment in a line: ChEBML_60811. An excerpt:
Binding affinity for rat Dopamine receptor D2

Assay [8] deals with T7, 5-hydroxytryptamine receptor 1A (Homo sapiens, UniProt P08908).
T7 sequence (P08908 whole entry): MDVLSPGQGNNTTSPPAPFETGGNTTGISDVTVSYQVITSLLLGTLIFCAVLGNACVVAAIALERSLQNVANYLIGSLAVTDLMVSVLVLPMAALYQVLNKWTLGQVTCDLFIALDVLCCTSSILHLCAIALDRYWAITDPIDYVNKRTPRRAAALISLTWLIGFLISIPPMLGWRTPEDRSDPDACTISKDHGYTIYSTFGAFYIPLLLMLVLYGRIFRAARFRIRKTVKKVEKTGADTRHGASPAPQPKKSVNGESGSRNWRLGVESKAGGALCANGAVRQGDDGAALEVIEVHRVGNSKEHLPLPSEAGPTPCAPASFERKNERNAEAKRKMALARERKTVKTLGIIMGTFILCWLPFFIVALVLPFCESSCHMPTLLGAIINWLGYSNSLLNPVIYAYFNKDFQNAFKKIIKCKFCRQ
The assay can be described thus: ChEBML_1016. An excerpt:
Binding affinity for human cloned 5-hydroxytryptamine 1A receptor

The target of assay [9] is D(2) dopamine receptor (Homo sapiens, UniProt P14416). The assay can be described thus: ChEBML_61646. An excerpt:
Binding affinity for human cloned Dopamine receptor D2L

In assay [10] the target is T1, 5-hydroxytryptamine receptor 2A. Described as §1.

Structures are written as SMILES.

Histamine H1 receptor, sequence (P35367 whole entry): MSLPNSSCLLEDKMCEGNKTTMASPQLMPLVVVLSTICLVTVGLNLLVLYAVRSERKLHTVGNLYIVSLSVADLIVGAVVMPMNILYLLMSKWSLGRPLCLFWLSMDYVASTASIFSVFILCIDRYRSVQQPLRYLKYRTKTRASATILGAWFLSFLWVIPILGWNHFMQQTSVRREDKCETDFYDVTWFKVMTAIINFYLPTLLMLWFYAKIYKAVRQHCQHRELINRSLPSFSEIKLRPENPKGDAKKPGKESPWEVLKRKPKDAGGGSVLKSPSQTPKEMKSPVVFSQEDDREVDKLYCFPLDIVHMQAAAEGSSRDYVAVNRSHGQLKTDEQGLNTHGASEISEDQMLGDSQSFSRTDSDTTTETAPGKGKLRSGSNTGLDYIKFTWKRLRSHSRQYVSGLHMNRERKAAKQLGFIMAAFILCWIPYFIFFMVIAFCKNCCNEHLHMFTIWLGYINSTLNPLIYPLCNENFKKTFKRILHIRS
D(2) dopamine receptor (Homo sapiens, UniProt P14416), sequence (P14416 whole entry): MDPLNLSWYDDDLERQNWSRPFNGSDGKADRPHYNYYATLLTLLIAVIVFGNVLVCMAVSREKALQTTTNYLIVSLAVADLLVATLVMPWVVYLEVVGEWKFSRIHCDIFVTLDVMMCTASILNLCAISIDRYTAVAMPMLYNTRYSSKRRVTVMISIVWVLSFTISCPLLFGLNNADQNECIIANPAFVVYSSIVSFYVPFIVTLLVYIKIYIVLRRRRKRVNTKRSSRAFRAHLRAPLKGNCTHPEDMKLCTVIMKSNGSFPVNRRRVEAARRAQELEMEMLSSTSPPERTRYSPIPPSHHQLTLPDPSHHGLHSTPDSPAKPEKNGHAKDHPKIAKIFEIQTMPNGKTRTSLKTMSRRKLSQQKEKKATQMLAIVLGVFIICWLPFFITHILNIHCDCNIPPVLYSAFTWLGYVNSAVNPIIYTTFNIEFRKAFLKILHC
D(2) dopamine receptor (Rattus norvegicus, UniProt P61169), sequence (P61169 whole entry): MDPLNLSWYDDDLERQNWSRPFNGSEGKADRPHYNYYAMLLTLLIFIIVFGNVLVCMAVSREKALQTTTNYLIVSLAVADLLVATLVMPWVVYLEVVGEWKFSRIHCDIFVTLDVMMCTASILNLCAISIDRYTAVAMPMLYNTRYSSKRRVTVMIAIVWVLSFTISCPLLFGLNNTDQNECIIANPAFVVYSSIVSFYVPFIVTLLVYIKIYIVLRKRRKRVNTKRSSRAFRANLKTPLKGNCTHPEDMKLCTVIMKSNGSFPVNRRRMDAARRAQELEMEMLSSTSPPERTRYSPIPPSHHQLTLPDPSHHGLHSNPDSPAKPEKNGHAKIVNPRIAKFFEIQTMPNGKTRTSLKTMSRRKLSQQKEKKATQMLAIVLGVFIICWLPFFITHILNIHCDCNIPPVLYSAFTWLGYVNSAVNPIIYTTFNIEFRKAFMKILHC
T1 sequence (P28223 whole entry): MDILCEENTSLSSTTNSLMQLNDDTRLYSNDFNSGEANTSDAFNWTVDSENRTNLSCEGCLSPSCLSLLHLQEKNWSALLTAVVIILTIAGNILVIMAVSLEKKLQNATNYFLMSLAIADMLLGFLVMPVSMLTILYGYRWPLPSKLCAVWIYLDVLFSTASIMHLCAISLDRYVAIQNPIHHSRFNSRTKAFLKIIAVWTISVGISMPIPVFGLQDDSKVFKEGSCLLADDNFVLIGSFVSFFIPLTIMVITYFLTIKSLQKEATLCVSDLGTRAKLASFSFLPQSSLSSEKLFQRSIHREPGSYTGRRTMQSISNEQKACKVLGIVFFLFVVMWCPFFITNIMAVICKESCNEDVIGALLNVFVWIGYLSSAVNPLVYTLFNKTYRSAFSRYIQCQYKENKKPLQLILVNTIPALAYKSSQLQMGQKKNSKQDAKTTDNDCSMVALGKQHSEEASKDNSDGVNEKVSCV

Turning to `CN(C)CC1CC2c3cc(C(F)(F)F)ccc3Cc3ccccc3N2O1` (configuration not stated), the IC50 (in assay [1]; in assay [2]; on Histamine H1 receptor) was below 1000 nM each time.

With `CN(C)CC1CC2c3ccccc3Cc3cccc(Cl)c3N2O1` (configuration not stated), the IC50 in [1] was 32 nM; in assay [2] it was 10 nM; on Histamine H1 receptor, 15 nM.

`CN(C)CC1CC2c3c(F)cccc3Cc3ccccc3N2O1` (configuration not stated): the IC50 (in assay [1]; in assay [2]; against Histamine H1 receptor) was below 1000 nM each time.

In the case of `CN(C)CC1CC2c3ccccc3Cc3ccc(Cl)cc3N2O1` (configuration not stated), the half-inhibitory concentration (IC50) in assay [3] came to 479 nM; in [4] it was 135 nM; in assay [1], 3.5 nM; against D(4) dopamine receptor it was 2.6 nM; against D(3) dopamine receptor, 0.55 nM; in assay [5] it was 14 nM. In addition, the IC50 came out at 871 nM in [6]; 1 nM in assay [2]; 8.9 nM against D(2) dopamine receptor [7]; 200 nM in [8]; 2.3 nM on Histamine H1 receptor; 8.7 nM on D(2) dopamine receptor [9].

With `CN(C)CC1CC2c3ccccc3Cc3ccc(-c4ccccc4)cc3N2O1` (configuration not stated), the IC50 in assay [10] is 22 nM; in assay [2], 11 nM; against Histamine H1 receptor, 7.9 nM.

Take `CN(C)CC1CC2c3cccc(Cl)c3Cc3ccccc3N2O1` (configuration not stated): the IC50 (in [1]; in [2]; at Histamine H1 receptor) was below 1000 nM each time.

As for `Cc1ccc2c(c1)Cc1ccccc1N1OC(CN(C)C)CC21` (configuration not stated), the results for the IC50 (in assay [2]; against Histamine H1 receptor) were 6.3 nM and 16 nM, respectively.

For `CN(C)CC1CC2c3cccc(F)c3Cc3ccccc3N2O1` (configuration not stated), the IC50 was found to be 12 nM in assay [2] and 2.3 nM against Histamine H1 receptor.

With `CN(C)CC1CC2c3c(cccc3C(F)(F)F)Cc3ccccc3N2O1` (configuration not stated), the IC50 in assay [1] came to 68 nM; in [2], 7.6 nM; against Histamine H1 receptor it was 48 nM.

With `CN(C)CC1CC2c3ccccc3Cc3c(F)cccc3N2O1` (configuration not stated), the IC50 in assay [1] is 24 nM; in [2], 5 nM; against Histamine H1 receptor, 1.7 nM.

Consider `COc1ccc2c(c1)C1CC(CN(C)C)ON1c1ccccc1C2` (configuration not stated), for which the IC50 in [1] amounted to 302 nM; in [2], 19 nM; against Histamine H1 receptor it was 14 nM.

In the case of `Cc1cccc2c1C1CC(CN(C)C)ON1c1ccccc1C2` (configuration not stated), the results for the IC50 (in [1]; in [2]; against Histamine H1 receptor) were 48 nM, 30 nM and 12 nM, respectively.

`Cc1cccc2c1Cc1ccccc1C1CC(CN(C)C)ON21` (configuration not stated): the IC50 in [1] came to 91 nM; in assay [2], 3.9 nM; against Histamine H1 receptor it was 6 nM.

For the molecule `Cc1ccc2c(c1)N1OC(CN(C)C)CC1c1ccccc1C2` (configuration not stated), the half-maximal inhibitory concentration (IC50) in [3] is below 1000 nM; in assay [4], below 1000 nM; in assay [1], 3.1 nM; on D(4) dopamine receptor it was below 1000 nM; against D(3) dopamine receptor, below 1000 nM; in [5] it was 43 nM. Further, the IC50 in assay [6] is below 1000 nM; in assay [2] it was 3 nM; on D(2) dopamine receptor [7] it was below 1000 nM; in assay [8] it was below 1000 nM; against Histamine H1 receptor it was 5.9 nM; at D(2) dopamine receptor [9], 55 nM.

With `CN(C)CC1CC2c3cc(F)ccc3Cc3ccccc3N2O1` (configuration not stated), the IC50 in assay [1] worked out at 54 nM; in assay [2] it was 11 nM; on Histamine H1 receptor it was 3.8 nM.

On to `CN(C)CC1CC2c3ccccc3Cc3ccc(F)cc3N2O1` (configuration not stated), for which the IC50 in assay [3] stood at 501 nM; in assay [4], 302 nM; on D(4) dopamine receptor, 14 nM; on D(3) dopamine receptor it was 14 nM; in [5], 45 nM; in assay [6], 1170 nM. Moreover, the IC50 was below 1000 nM against D(2) dopamine receptor [7], 1590 nM in [8], 2.6 nM at Histamine H1 receptor and 36 nM against D(2) dopamine receptor [9].

`CN(C)CC1CC2c3cccc(C(F)(F)F)c3Cc3ccccc3N2O1` (configuration not stated): the IC50 in [1] was 1000 nM; in assay [2], 437 nM; at Histamine H1 receptor, 37 nM.

On to `CN(C)CC1CC2c3cc(F)ccc3Cc3ccc(F)cc3N2O1` (configuration not stated), for which the IC50 in assay [3] is below 1000 nM; in assay [4], below 1000 nM; at D(4) dopamine receptor, below 1000 nM; at D(3) dopamine receptor, below 1000 nM; in assay [5] it was 162 nM; in assay [6] it was below 1000 nM. Also, the IC50 is 6.2 nM in assay [2], below 1000 nM in [8], 17 nM on Histamine H1 receptor and 447 nM on D(2) dopamine receptor [9].

`CN(C)CC1CC2c3ccccc3Cc3cc(F)ccc3N2O1` (configuration not stated): the IC50 in assay [1] stood at 6.9 nM; in assay [2] it was 4.7 nM; against Histamine H1 receptor, 1.3 nM.
